Data taken from patent US5891882A, “Benzopyranopyrrole and benzopyranopyridine α-1 adenergic compounds” (priority 1997, dated 1999).
Counter-ions that a name gives are not always drawn.

Columns and labels:
[1] = target: T1, α-1B adrenoreceptor (rat spleen) (Rattus norvegicus, UniProt P15823); assay: Functional antagonism: inhibition of phenylephrine-induced contraction of rat spleen; type: cell-based; settings: rat spleen, phenylephrine-induced contraction, Schild plot
T1 construct: from tissue; host or cells: rat spleen
T1 sequence (P15823 1-515): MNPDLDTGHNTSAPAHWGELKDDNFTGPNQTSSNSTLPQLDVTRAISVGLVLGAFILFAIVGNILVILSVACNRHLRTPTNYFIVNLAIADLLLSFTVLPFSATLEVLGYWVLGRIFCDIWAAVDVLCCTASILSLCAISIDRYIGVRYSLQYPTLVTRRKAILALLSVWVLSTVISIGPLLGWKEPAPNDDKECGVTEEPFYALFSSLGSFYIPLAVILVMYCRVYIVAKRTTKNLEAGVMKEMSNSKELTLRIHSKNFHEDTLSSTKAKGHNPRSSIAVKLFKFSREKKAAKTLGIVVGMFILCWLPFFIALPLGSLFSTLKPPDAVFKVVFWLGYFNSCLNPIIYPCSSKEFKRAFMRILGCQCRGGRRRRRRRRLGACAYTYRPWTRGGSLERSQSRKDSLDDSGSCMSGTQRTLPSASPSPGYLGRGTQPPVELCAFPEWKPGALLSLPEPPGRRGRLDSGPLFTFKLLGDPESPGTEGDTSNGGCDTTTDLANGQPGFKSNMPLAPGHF
Source text: (§1) Functional assays indicative of pharmacologically defined α-1 adrenoreceptors were used to further characterize compounds. Inhibition of phenylephrine (PE)-induced contraction of canine prostate smooth muscle can be correlated with α-1A adrenoreceptor activation. […] For each of these models, agonist dose response curves were repeated against increasing concentrations of test agent to derive a Schild plot [log ([…]) against log (molarity of test agent)] to determine the pA2.

[2] = target: T2, α-1 Adrenoceptors (Rat Aorta) (Rattus norvegicus, UniProt P23944); assay: Functional antagonism at α-1 adrenoceptors, rat aorta; type: cell-based; settings: for Kb: read-out: In Vitro Characterization (pA2) Rat Aorta (converted)
T2 construct: Rat Aorta; from tissue; host or cells: rat aorta
T2 sequence (P23944 1-561): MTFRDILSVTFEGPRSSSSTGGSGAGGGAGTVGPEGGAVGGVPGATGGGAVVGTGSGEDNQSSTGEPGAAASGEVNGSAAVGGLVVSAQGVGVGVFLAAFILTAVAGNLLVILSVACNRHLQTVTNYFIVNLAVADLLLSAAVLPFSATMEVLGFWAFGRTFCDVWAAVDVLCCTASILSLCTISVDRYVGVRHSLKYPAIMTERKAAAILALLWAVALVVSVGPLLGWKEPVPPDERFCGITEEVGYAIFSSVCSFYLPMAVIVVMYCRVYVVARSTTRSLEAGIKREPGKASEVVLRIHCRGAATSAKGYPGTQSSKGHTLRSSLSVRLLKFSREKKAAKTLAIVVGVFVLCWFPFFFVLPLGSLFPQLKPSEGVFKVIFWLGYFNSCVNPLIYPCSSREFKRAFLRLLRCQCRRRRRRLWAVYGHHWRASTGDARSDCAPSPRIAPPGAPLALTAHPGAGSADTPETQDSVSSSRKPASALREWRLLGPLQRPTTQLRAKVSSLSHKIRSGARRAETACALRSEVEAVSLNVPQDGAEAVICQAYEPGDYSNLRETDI
Source text: as §1

[3] = test system: α-1 adrenoreceptor; settings: cited from earlier work; for dose limiting side effects: BPH treatment; for urinary flow rates and subjective symptom scores: longer term studies, BPH; for clinical efficacy in BPH: non-selective α-1 blockers
[4] = target: T3, α-1A adrenoreceptor (canine prostate smooth muscle) (Canis lupus, UniProt A0A8I3NK63); assay: Functional antagonism: inhibition of phenylephrine-induced contraction of canine prostate strips; type: cell-based; settings: Schild plot
T3 construct: antagonism of phenylephrine-induced contraction (pA2, Schild)
T3 sequence (A0A8I3NK63 1-466): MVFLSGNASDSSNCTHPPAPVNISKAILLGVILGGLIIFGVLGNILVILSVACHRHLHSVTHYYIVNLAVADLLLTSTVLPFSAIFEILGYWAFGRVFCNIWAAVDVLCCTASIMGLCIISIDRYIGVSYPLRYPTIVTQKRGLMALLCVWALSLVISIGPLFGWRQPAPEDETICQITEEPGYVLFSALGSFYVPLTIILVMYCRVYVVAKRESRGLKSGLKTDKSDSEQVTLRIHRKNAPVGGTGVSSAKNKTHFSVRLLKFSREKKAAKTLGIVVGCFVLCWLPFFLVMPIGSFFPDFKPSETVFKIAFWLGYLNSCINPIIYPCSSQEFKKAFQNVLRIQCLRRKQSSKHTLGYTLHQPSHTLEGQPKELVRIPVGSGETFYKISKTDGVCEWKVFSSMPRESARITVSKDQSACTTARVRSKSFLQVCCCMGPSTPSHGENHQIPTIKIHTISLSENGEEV
Source text: Canine prostate strips were used in vitro as previously described (Hieble, J. P., Boyce, Caine, M., Fed Proc., 45: 2609-2614 (1986)), to determine antagonist potencies phenylephrine-induced contractions.
as §1
Canine prostate strips were used in vitro as previously described (Hieble, J. P., Boyce, A. J. and Caine, M., Fed. Proc., 45: 2609-2614 (1986)), to determine antagonist potencies against phenylephrine-induced contractions.

Compound	In Vitro Characterization (pA2) Rat Spleen [1]	Kb [2] [nM]	further results
COc1cccc2c1[C@@H]1CN(CCCCn3c(=O)[nH]c4c(sc5ncccc54)c3=O)C[C@H]1CO2 [Example 44, 3-[4-((3aS,9bR)-trans-9-Methoxy-1,2,3,3a,4,9b-hexahydro-[1]-benzopyrano[3,4-c]pyrrol-2-yl)butyl]-pyrido[3',2':4,5]thieno[3,2-d]pyrimidine-2,4(1H,3H)-dione hydrochloride]	8.35	0.0398	–
COc1cccc2c1[C@@H]1CN(CCCCn3c(=O)[nH]c4c(sc5nc(Cl)ccc54)c3=O)C[C@H]1CO2 [Example 47, 3-[4-((3aS,9bR)-trans-9-Methoxy-1,2,3,3a,4,9b-hexahydro-[1]-benzopyrano[3,4-c]pyrrol-2-yl)butyl]-7-chloro-pyrido[3',2':4,5]thieno[3,2-d]pyrimidine-2,4(1H,3H)-dione hydrochloride]	7.95	0.204	–
O=C(NC1CCN(CCc2c[nH]c3ccccc23)CC1)c1ccccc1 [indoramin]	–	–	dose limiting side effects [3]: hypotension, dizziness, and muscle fatigue; urinary flow rates and subjective symptom scores [3]: significant improvements in urinary flow rates and subjective symptom scores
COc1cc2[nH]c(=O)n(CCCCN3C[C@@H]4COc5ccccc5[C@@H]4C3)c(=O)c2cc1OC.Cl (racemic) [Example 81, 3-[4-((±)-cis-1,2,3,3a,4,9b-hexahydro-[1]-benzopyrano[3,4-c]pyrrol-2-yl)butyl]-6,7-dimethoxy-quinazoline-2,4(1H,3H)-dione hydrochloride]	7.41	–	–
COc1cccc2c1OC[C@H]1CN(CCn3c(=O)[nH]c4c(sc5ccccc54)c3=O)C[C@@H]21.Cl (racemic) [Example 67, 3-[2-((±)-cis-6-Methoxy-1,2,3,3a,4,9b-hexahydro-[1]-benzopyrano[3,4-c]pyrrol-2-yl)ethyl]-[1]-benzthieno[3,2-d]pyrimidine-2,4(1H,3H)-dione hydrochloride]	6.83	–	In Vitro Characterization (pA2) Dog Prostate [4]: 7.33
COc1cccc2c1[C@@H]1CN(CCCCn3c(=O)[nH]c4c(sc5ncc(-c6ccccc6)nc54)c3=O)C[C@@H]1CO2 [Example 39, 3-[4-((3aR,9bR)-cis-9-Methoxy-1,2,33a,4,9b-hexahydro-[1]-benzopyrano[3,4-c]pyrrol-2-yl)butyl]-8-phenyl-pyrazino[2',3':4,5]thieno[3,2-d]pyrimidine-2,4(1H,3H)-dione hydrochloride]	6.83	12.9	In Vitro Characterization (pA2) Dog Prostate [4]: 8.52
COc1cc2nc(N3CCN(C(=O)C4COc5ccccc5O4)CC3)nc(N)c2cc1OC (stereo not drawn) [Doxazosin, doxazosin]	–	–	dose limiting side effects [3]: hypotension, dizziness, and muscle fatigue; urinary flow rates and subjective symptom scores [3]: significant improvements in urinary flow rates and subjective symptom scores; clinical efficacy in BPH [3]: Clinical efficacy
COc1cccc2c1[C@@H]1CN(CCCCn3c(=O)[nH]c4c(sc5ncc(-c6ccccc6)nc54)c3=O)C[C@H]1CO2 [Example 50, 3-[4-((3aS,9bR)-trans-9-Methoxy-1,2,3,3a,4,9b-hexahydro-[1]-benzopyrano[3,4-c]pyrrol-2-yl)butyl]-8-phenyl-pyrazino[2',3':4,5]thieno[3,2-d]pyrimidine-2,4(1H,3H)-dione hydrochloride]	6.5	0.389	In Vitro Characterization (pA2) Dog Prostate [4]: 8.45
COc1cccc2c1[C@@H]1CN(CCCCn3c(=O)[nH]c4c(sc5ncccc54)c3=O)C[C@@H]1CO2 [Example 34, hydrochloride]	8.12	0.646	–
COc1cc2nc(N3CCN(C(=O)C4CCCO4)CC3)nc(N)c2cc1OC (stereo not drawn) [Terazosin, terazosin]	–	–	dose limiting side effects [3]: hypotension, dizziness, and muscle fatigue; urinary flow rates and subjective symptom scores [3]: significant improvements in urinary flow rates and subjective symptom scores; clinical efficacy in BPH [3]: Clinical efficacy; In Vitro Characterization (pA2) Rat Aorta [2]: 8.65
COc1cccc2c1[C@@H]1CN(CCCCn3c(=O)[nH]c4c(sc5c(Cl)nccc54)c3=O)C[C@H]1CO2 [Example 54]	7.31	–	–
COc1ccc2c(n1)sc1c(=O)n(CCCCN3C[C@H]4COc5cccc(OC)c5[C@@H]4C3)c(=O)[nH]c12 [Example 46, 3-[4-((3aS,9bR)-trans-9-Methoxy-1,2,3,3a,4,9b-hexahydro-[1]-benzopyrano[3,4-c]pyrrol-2-yl)butyl]-7-methoxy-pyrido[3',2':4,5]thieno[3,2-d]pyrimidine-2,4(1H,3H)-dione hydrochloride]	8.12	0.155	–
